Assay results reported in paper PMC8124163 (2021).

Legend:
[1] = tested on: 22AG (DNA, G4) AGGGTTAGGGTTAGGGTTAGGG; experiment: photometric titration; settings: K+ 110 mM; K-phosphate buffer, pH 7.0, 5% v/v DMSO; compound 20 µM
[2] = tested on: FkitT (DNA, G4) AGGGAGGGCGCTGGGAGGAGGG; experiment: FRET melting (fluorescence); settings: K+ 10 mM, Na+ 10 mM, Li+ 90 mM; cacodylate, pH 7.0; ligand:DNA ratio 5; DNA 0.2 µM (Figure S6; Table 2 prints 0.2 mM); error ±0.5 °C
[3] = tested on: FmycT (DNA, G4) TGAGGGTGGGTAGGGTGGGTA; experiment: FRET melting (fluorescence); settings: K+ 10 mM, Na+ 10 mM, Li+ 90 mM; cacodylate, pH 7.0; ligand:DNA ratio 5; DNA 0.2 µM (Figure S6; Table 2 prints 0.2 mM); error ±0.5 °C
[4] = tested on: c-kit (DNA, G4) AGGGAGGGCGCTGGGAGGAGGG; experiment: photometric titration; settings: K+ 110 mM; K-phosphate buffer, pH 7.0, 5% v/v DMSO; compound 20 µM
[5] = tested on: a2 (DNA, G4) ACAGGGGTGTGGGGACAGGGGTGTGGGG; experiment: photometric titration; settings: K+ 110 mM; K-phosphate buffer, pH 7.0, 5% v/v DMSO; compound 20 µM
[6] = tested on: c-myc (DNA, G4) TGAGGGTGGGTAGGGTGGGTA; experiment: photometric titration; settings: K+ 110 mM; K-phosphate buffer, pH 7.0, 5% v/v DMSO; compound 20 µM

Kb [1]: 5.0 ± 0.6 × 10^5 M^-1 | ∆Tm [2]: 1.0 °C | ∆Tm [3]: 2.2 °C | Kb [4]: 6.9 ± 0.2 × 10^5 M^-1 | Kb [5]: 6.7 ± 0.2 × 10^5 M^-1 | Kb [6]: 5.9 ± 0.4 × 10^5 M^-1
SMILES: COc1ccc2cc3[n+](cc2c1OP(=O)(O)O)CCc1cc2c(cc1-3)OCO2
